For 14 molecules, IC50 and Ki results are on record in ChEMBL document CHEMBL1909046, “DrugMatrix in vitro pharmacology data”.

Usually IC50 stands for the concentration at which inhibition is half-maximal. In general, Ki refers to the equilibrium dissociation constant of an inhibitor or competing ligand from its target.

Experiment [1] is described as follows: DRUGMATRIX: Atrial Natriuretic Factor (ANF) radioligand binding (ligand: [125I] ANF (rat)). Type of experiment: cell membranes, Cavia porcellus, Dunkin-Hartley, Adrenal gland, Membrane. The conditions noted are these: Not Active = under 50% inhibition at 10 µM.
The target of a further experiment is T1, Progesterone receptor (Bos taurus, UniProt Q690N0).
T1 sequence (Q690N0 whole entry): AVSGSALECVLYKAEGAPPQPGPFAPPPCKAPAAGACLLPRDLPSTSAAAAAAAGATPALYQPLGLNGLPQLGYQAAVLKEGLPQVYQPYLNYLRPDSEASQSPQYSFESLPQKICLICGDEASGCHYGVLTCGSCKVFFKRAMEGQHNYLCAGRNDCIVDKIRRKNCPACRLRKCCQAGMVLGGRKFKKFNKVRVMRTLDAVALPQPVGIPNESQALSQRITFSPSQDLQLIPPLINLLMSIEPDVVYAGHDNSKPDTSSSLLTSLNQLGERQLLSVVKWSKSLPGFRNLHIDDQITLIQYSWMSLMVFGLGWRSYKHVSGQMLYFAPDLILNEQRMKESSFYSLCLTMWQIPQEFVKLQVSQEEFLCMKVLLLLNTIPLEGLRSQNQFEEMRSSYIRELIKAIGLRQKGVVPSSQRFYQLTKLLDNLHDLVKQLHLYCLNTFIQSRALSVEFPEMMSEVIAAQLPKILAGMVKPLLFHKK
The experiment in a line: DRUGMATRIX: Progesterone radioligand binding (ligand: [3H] R-5020). The conditions noted are these: Not Active = under 50% inhibition at 10 µM. Type of experiment: tissue-based, Uterus.

Experiment [2] concerns the target T2, 3-hydroxy-3-methylglutaryl-coenzyme A reductase (Homo sapiens, UniProt P04035).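 Further: enzyme inhibition assay of HMG-CoA reductase using radiolabeled [14C]HMG-CoA as substrate; in other assays of this panel Not Active means under 50% inhibition at 10 µM.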
T2 sequence (P04035 whole entry): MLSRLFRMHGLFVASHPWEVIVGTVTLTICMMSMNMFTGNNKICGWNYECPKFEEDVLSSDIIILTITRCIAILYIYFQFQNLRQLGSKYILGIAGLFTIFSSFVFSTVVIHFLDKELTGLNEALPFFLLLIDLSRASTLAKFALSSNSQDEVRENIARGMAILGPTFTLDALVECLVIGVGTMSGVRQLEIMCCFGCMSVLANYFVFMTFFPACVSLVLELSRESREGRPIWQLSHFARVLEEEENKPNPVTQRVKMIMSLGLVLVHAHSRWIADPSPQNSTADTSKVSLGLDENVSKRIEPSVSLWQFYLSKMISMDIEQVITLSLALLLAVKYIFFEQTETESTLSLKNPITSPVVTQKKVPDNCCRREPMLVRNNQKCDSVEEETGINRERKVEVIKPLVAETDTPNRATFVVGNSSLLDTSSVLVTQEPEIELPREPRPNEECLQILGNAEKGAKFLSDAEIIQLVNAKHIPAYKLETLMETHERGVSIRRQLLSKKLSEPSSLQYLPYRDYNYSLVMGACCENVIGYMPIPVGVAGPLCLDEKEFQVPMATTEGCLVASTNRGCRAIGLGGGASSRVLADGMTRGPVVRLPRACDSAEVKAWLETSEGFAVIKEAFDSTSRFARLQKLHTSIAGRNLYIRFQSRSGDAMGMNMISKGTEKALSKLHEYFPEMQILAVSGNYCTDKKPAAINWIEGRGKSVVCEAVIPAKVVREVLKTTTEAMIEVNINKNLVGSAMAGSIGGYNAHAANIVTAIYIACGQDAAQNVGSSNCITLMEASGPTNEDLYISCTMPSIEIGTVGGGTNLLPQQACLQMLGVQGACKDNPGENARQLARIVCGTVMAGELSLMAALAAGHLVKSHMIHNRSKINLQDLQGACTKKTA
Also on record: species or system Escherichia coli.

Experiment [3] has as its target Sodium-dependent dopamine transporter (Homo sapiens, UniProt Q01959). As to the kind of experiment: DRUGMATRIX: Dopamine Transporter radioligand binding (ligand: [125I] RTI-55). Particulars: Not Active = under 50% inhibition at 10 µM. Type of experiment: cell membranes, CHO-K1, Membrane.
Experiment [4] can be described thus: DRUGMATRIX: Potassium Channel [KATP] radioligand binding (ligand: [3H] Glyburide). It counts as cell membranes, Membrane. Particulars: hit-t15; Not Active = under 50% inhibition at 10 µM.
A short description of experiment [5]: DRUGMATRIX: Glutamate, Kainate radioligand binding (ligand: [3H] Kainic acid). Type of experiment: cell membranes, Rattus norvegicus, Wistar, Brain, Membrane. Particulars: Not Active = under 50% inhibition at 10 µM.
Experiment [6] deals with T3, Vasoactive intestinal polypeptide receptor 1 (Homo sapiens, UniProt P32241).
T3 sequence (P32241 whole entry): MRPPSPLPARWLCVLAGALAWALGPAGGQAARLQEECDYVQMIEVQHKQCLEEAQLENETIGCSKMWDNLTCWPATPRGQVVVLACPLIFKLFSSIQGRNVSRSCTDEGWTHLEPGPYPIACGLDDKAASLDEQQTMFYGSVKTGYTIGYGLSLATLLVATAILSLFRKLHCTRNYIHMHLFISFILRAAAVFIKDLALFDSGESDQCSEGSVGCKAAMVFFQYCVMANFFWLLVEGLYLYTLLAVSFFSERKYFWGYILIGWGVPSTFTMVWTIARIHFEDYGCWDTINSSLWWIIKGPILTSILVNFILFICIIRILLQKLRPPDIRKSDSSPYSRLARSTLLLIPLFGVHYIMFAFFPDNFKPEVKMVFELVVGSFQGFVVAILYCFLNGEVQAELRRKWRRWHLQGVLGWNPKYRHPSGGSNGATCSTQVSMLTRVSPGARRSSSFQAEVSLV
Type of experiment: cell membranes, Membrane. The conditions noted are these: ht-29.

Chain of Sodium-dependent dopamine transporter (Q01959 whole entry): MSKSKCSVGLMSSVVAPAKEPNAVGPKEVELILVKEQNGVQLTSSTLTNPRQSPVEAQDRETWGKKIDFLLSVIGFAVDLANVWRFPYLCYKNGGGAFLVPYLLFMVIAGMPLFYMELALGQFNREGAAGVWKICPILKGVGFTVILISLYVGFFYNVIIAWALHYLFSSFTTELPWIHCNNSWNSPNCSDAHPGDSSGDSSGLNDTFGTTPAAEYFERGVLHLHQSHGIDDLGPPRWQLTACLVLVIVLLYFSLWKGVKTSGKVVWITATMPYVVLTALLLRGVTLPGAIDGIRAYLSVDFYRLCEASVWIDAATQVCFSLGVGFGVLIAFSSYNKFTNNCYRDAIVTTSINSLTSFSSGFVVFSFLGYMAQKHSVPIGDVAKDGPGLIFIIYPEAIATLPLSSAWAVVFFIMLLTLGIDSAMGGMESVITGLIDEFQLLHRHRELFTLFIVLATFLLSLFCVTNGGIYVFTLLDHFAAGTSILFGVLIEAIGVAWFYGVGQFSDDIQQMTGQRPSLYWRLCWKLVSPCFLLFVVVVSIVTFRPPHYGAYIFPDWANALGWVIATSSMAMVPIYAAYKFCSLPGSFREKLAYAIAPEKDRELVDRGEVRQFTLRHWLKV

For the molecule `O=c1cc(N2CCOCC2)oc2c(-c3ccccc3)cccc12` [LY-294002], the IC50 result (in experiment [1]; at Progesterone receptor; in experiment [2]; in experiment [3] (cho-k1); in experiment [4]; in experiment [5]) was “Not Active” each time. In addition, the IC50 result in experiment [6] is given as “Not Active”. The Ki entry in experiment [1], in experiment [4] and in experiment [5] was “Not Active” each time.
Take `COc1ccc2[nH]cc(CCNC(C)=O)c2c1` [MELATONIN]: the IC50 entry (in experiment [1]; on Progesterone receptor; in experiment [2]; in experiment [3] (cho-k1); in experiment [4]; in experiment [5]) was “Not Active” each time. Further, the IC50 result in experiment [6] is listed as “Not Active”. In addition, the Ki result in experiment [1], in experiment [4] and in experiment [5] was “Not Active” throughout.
As for `CCN(CC)CCOCCC1=CCC2CC1C2(C)C` (configuration not stated) [MYRTECAINE], the IC50 result (in experiment [1]; on Progesterone receptor; in experiment [2]; in experiment [3] (cho-k1); in experiment [4]; in experiment [5]) was “Not Active” throughout. In addition, in experiment [6], the IC50 result is listed as “Not Active”. Moreover, the Ki entry in experiment [1], in experiment [4] and in experiment [5] was “Not Active” throughout.
Turning to `O=C(O)c1cccnc1Nc1cccc(C(F)(F)F)c1` [NIFLUMIC ACID], the IC50 entry (in experiment [1]; at Progesterone receptor; in experiment [2]; in experiment [3] (cho-k1); in experiment [4]; in experiment [5]) was “Not Active” each time. For the same molecule, the IC50 result in experiment [6] is “Not Active”. Also, the Ki entry in experiment [1], in experiment [4] and in experiment [5] was “Not Active” throughout.
With `O=C(N/N=C/c1ccc([N+](=O)[O-])o1)c1cc([N+](=O)[O-])cc([N+](=O)[O-])c1O` [NIFURSOL], the IC50 entry (in experiment [1]; at Progesterone receptor; in experiment [2]; in experiment [3] (cho-k1); in experiment [4]; in experiment [5]) was “Not Active” throughout. The IC50 entry in experiment [6] is listed as “Not Active”. Also, the Ki result in experiment [1], in experiment [4] and in experiment [5] was “Not Active” throughout.
`COC(=O)Nc1nc2ccc(C(=O)c3cccs3)cc2[nH]1` [NOCODAZOLE]: the concentration for half-maximal inhibition (IC50) entry in experiment [1] is “Not Active”; on Progesterone receptor, “Not Active”; in experiment [2] it was “Not Active”; in experiment [3] (read-out: IC50), 6230 nM; in experiment [4], “Not Active”; in experiment [5], “Not Active”. In addition, the concentration for half-maximal inhibition (IC50) result in experiment [6] was “Not Active”. For the same molecule, the Ki entry in experiment [1] was “Not Active”; in experiment [3] (read-out: Ki), 4950 nM; in experiment [4], “Not Active”; in experiment [5], “Not Active”.
On to `C#CC1(O)CC[C@H]2[C@@H]3CCC4=CC(=O)CC[C@@H]4[C@H]3CC[C@@]21CC` (some centres not stated) [NORGESTREL], for which the IC50 result in experiment [1] was “Not Active”; at Progesterone receptor (read-out: IC50), 3.51 nM; in experiment [2], “Not Active”; in experiment [3] (cho-k1), “Not Active”; in experiment [4], “Not Active”; in experiment [5] it was “Not Active”. Moreover, in experiment [6], the IC50 result is on record as “Not Active”. In addition, the inhibition constant Ki result in experiment [1] was “Not Active”; at Progesterone receptor (read-out: Ki) it was 0.458 nM; in experiment [4] it was “Not Active”; in experiment [5], “Not Active”.
On to `COC(=O)Nc1nc2ccc([S+]([O-])c3ccccc3)cc2[nH]1` (configuration not stated) [OXFENDAZOLE], for which the IC50 entry (in experiment [1]; on Progesterone receptor; in experiment [2]; in experiment [3] (cho-k1); in experiment [4]; in experiment [5]) was “Not Active” in each case. Further, the IC50 result in experiment [6] is “Not Active”. For the same molecule, the Ki result in experiment [1], in experiment [4] and in experiment [5] was “Not Active” in each case.
For the molecule `CC(=O)O[C@H]1C(=O)[C@@]2(C)[C@H]([C@H](OC(=O)c3ccccc3)[C@]3(O)C[C@H](OC(=O)[C@H](O)[C@@H](NC(=O)c4ccccc4)c4ccccc4)C(C)=C1C3(C)C)[C@]1(OC(C)=O)CO[C@@H]1C[C@@H]2O` [PACLITAXEL], the IC50 entry (in experiment [1]; at Progesterone receptor; in experiment [2]; in experiment [3] (cho-k1); in experiment [4]; in experiment [5]) was “Not Active” in each case. Also, the IC50 entry in experiment [6] is reported as “Not Active”. In addition, the Ki entry in experiment [1], in experiment [4] and in experiment [5] was “Not Active” each time.
Consider `C[n+]1ccc(-c2cc[n+](C)cc2)cc1.[Cl-].[Cl-]` [PARAQUAT DICHLORIDE], for which the IC50 result (in experiment [1]; on Progesterone receptor; in experiment [2]; in experiment [3] (cho-k1); in experiment [4]; in experiment [5]) was “Not Active” in each case. Besides, the IC50 result in experiment [6] is reported as “Not Active”. Besides, the Ki result in experiment [1], in experiment [4] and in experiment [5] was “Not Active” each time.
On to `CCn1cc(C(=O)O)c(=O)c2cnc(N3CCCC3)nc21` [PIROMIDIC ACID], for which the IC50 entry (in experiment [1]; at Progesterone receptor; in experiment [2]; in experiment [3] (cho-k1); in experiment [4]; in experiment [5]) was “Not Active” in each case. Besides, the concentration for half-maximal inhibition (IC50) entry in experiment [6] was “Not Active”. Moreover, the Ki result in experiment [1], in experiment [4] and in experiment [5] was “Not Active” in each case.
In the case of `C[n+]1ccccc1/C=N/O.[Cl-]` [PRALIDOXIME CHLORIDE], the 50% inhibitory concentration (IC50) result (in experiment [1]; on Progesterone receptor; in experiment [2]; in experiment [3] (cho-k1); in experiment [4]; in experiment [5]) was “Not Active” in each case. In experiment [6], the IC50 entry is “Not Active”. Besides, the Ki result in experiment [1], in experiment [4] and in experiment [5] was “Not Active” in each case.
As to `COc1cc2nc(N3CCN(C(=O)c4ccco4)CC3)nc(N)c2cc1OC` [PRAZOSIN], the IC50 result (in experiment [1]; on Progesterone receptor; in experiment [2]; in experiment [3] (cho-k1); in experiment [4]; in experiment [5]) was “Not Active” in each case. The IC50 result in experiment [6] is “Not Active”. The Ki entry in experiment [1], in experiment [4] and in experiment [5] was “Not Active” each time.
`C[C@]12C=CC(=O)C=C1CC[C@@H]1[C@@H]2[C@@H](O)C[C@@]2(C)[C@H]1CC[C@]2(O)C(=O)CO` [PREDNISOLONE]: the half-maximal inhibitory concentration (IC50) entry (in experiment [1]; on Progesterone receptor; in experiment [2]; in experiment [3] (cho-k1); in experiment [4]; in experiment [5]) was “Not Active” each time. Further, in experiment [6], the half-maximal inhibitory concentration (IC50) entry is recorded as “Not Active”. Also, the inhibition constant (Ki) entry in experiment [1], in experiment [4] and in experiment [5] was “Not Active” each time.
